The subject of one test is bEnd.3 endothelial cells. The test can be described thus: qRT-PCR gene expression in TNF-α activated bEnd.3 endothelial cells. It counts as cell-based, mouse. As to conditions: DP 100 μM. As to the method: Quantitative real-time RT-PCR analysis. 10 ng cDNA, or 2 μl cDNA for LCM studies, was amplified by qRT-PCR in a 25 μl reaction using SYBR Green PCR Master Mix (Applied Biosystems, Foster City, Calif.). Primers were designed using Primer Express software v3.0 and primer efficiency verified by slope analysis to be 100%±2.5%. qRT-PCR was performed using an ABI 7500 fast system and data analyzed using the Δ^ct method (SDS software v3.0). Amplicon sizes were approximately 100 bp.
Cell treatment. Confluent bEnd.3 monolayers were incubated with 200 ng/ml TNF-α (Peprotech, Rocky Hill, N.J.) at 37° c. for 2 hours. […] Christoff Zitt and Armin Hatzelmann (Altana Pharma, Konstanz, Germany). Con A-activated splenocytes or CD4^+CD25^− T cells activated with plate-bound anti-CD3 mAb were treated with the same reagents for 20, 45, or 90 minutes.
In FIG. 23A, bEnd.3 endothelial cells were activated for 2 hours with TNF-α (200 ng/ml) and (A) DP (100 μM) or vehicle (0.1% DMSO) for the final 45 minutes. PDE gene expression was then analyzed by qRT-PCR and the data presented as the mean+SEM of 3 independent experiments assayed in triplicate (*p<0.05, **p<0.001; unpaired t-test).
The data are shown as a mean±SEM percentage of vehicle control and represent 3 independent experiments assayed in triplicate (*p<0.05, * *p<0.001; unpaired t-test).
In general terms: Quantitative PCR measures a nucleic acid by following its amplification.

The subject of another test is EAE in C57BL/6 mice. The test can be described thus: experimental autoimmune encephalomyelitis (EAE), clinical score. It is filed as in vivo, mouse. As to the method:
Induction of active EAE and clinical evaluation. Active EAE is induced in 8-12 weeks old mice by immunization with MOG p35-55 in complete Freund's adjuvant. 200 μg of MOG p35-55 peptide and 800 μg of killed mycobacterium tuberculosis are emulsified in CFA and injected subcutaneously by means of four injections over the flanks. In addition, 200 ng of pertussis toxin dissolved in 200 μl PBS is injected i.p. at the day of immunization and again the day after. Mice are monitored daily for clinical signs of EAE, and scored according to the following criteria: 0, no signs of disease; 0.5, partial tail weakness; 1, limp tail; 1.5, limp tail and slight slowing of righting; 2, partial hind limb weakness and/or marked slowing of righting; 2.5, dragging of hind limb(s) without complete paralysis; 3, complete paralysis of at least one hind limb; 4, severe forelimb weakness; 5, moribund or dead. Daily clinical scores are calculated and presented as the average (mean) and standard error of the mean (SEM) of all individual disease scores in each group. Statistical comparison of disease severity by clinical score is accomplished by calculating the mean clinical score for each mouse from day of disease onset to day 60 and performing a non-parametric Wilcoxon analysis.
[…] 8. DP is the only inhibitor known to block PDE 8 in addition to other PDEs. […]

Setting [1] is: 45 minutes, dibutryl cAMP 500 μM, 8-bromo-cAMP 500 μM.

On to `OCCN(CCO)c1nc(N2CCCCC2)c2nc(N(CCO)CCO)nc(N3CCCCC3)c2n1` [Dipyridamole, 2,2′,2″,2′″-(4,8-di(piperidin-1-yl)pyrimido[5,4-d]pyrimidine-2,6-diyl)bis(azanetriyl)tetraethanol], for which, in the test on bEnd.3 endothelial cells (45 minutes, dibutryl cAMP 500 μM), the “reduction of ICAM-1 mRNA expression” value amounted to 65%. In addition, in the test on bEnd.3 endothelial cells (setting [1]), the “increase of claudin-5 gene expression” value is listed as 111%, the “reduction of CXCL12 gene expression” value is 69% and the “reduction of VCAM-1 gene expression” value is 60%. In addition, in the test on bEnd.3 endothelial cells (final 45 minutes of TNF-α), the “PDE4B expression in bEnd.3 cells” value is “compensatory increase” and the “expression of other PDE genes, including PDE8A, in bEnd.3 cells” value is on record as “not significantly altered”. The “development of clinical signs of EAE” value in the test with EAE in C57BL/6 mice (2 mg DP per mouse per day, day 0 until day 23) was “profoundly suppressed”. Further, the “clinical severity of EAE compared with vehicle” value in the test with EAE in C57BL/6 mice (treatment after onset (mean score grade 1), 2×1 mg/mouse/day i.p.) is “significantly decreased”.

The values are drawn from US20090239884A1, “Methods of Treating Inflammation” (priority 2006, published 2009).
